Several values for one entry are separate records, joined by “and”; a condition that tells them apart may be missing. Equal entries are not always repeated. Numbers after ± are expanded uncertainties.
Conditions: Crystal, Transpiration method

O=[Te]=O [tellurium dioxide]
vapor or sublimation pressure (884 K): 0.0001487 ± 7.5e-06 kPa
vapor or sublimation pressure (889 K): 0.0001692 ± 8.6e-06 kPa
vapor or sublimation pressure (895 K): 0.0001987 ± 1e-05 kPa
vapor or sublimation pressure (899 K): 0.0002538 ± 1.3e-05 kPa
vapor or sublimation pressure (905 K): 0.0003102 ± 1.6e-05 kPa
vapor or sublimation pressure (909 K): 0.0003271 ± 1.7e-05 kPa
vapor or sublimation pressure (915 K): 0.0004741 ± 2.4e-05 kPa
vapor or sublimation pressure (925 K): 0.0006099 ± 3.1e-05 kPa and 0.0006023 ± 3e-05 kPa and 0.0005679 ± 2.9e-05 kPa
vapor or sublimation pressure (926 K): 0.0005409 ± 2.7e-05 kPa
vapor or sublimation pressure (935 K): 0.0009295 ± 4.7e-05 kPa
vapor or sublimation pressure (940 K): 0.001155 ± 5.8e-05 kPa
vapor or sublimation pressure (941 K): 0.001072 ± 5.4e-05 kPa
vapor or sublimation pressure (946 K): 0.001255 ± 6.3e-05 kPa
vapor or sublimation pressure (951 K): 0.001465 ± 7.3e-05 kPa
vapor or sublimation pressure (960 K): 0.002168 ± 0.00011 kPa
vapor or sublimation pressure (971 K): 0.003407 ± 0.00017 kPa
vapor or sublimation pressure (976 K): 0.003717 ± 0.00019 kPa
vapor or sublimation pressure (982 K): 0.004543 ± 0.00023 kPa
vapor or sublimation pressure (987 K): 0.004956 ± 0.00025 kPa

— the NIST ThermoML archive (doi:10.1016/j.tca.2007.11.004)
